Measurements reported in US12378231B2, “Small molecules as monoacylglycerol lipase (MAGL) inhibitors, compositions and use thereof” (APOGEE PHARMACEUTICALS, INC., priority 2023, dated 2025).

Key:
[1] = biological target: human recombinant MAGL (Homo sapiens (Human), UniProt Q99685); experiment: In vitro inhibition of human recombinant MAGL activity (Cayman inhibitor screening kit, 4-nitrophenylacetate hydrolysis); assay type: biochemical; conditions: human recombinant MAGL; read-out: Inhibition on MAGL activity (IC50)
Excerpt: The inhibitory effect of the synthetic chemicals on activity of human recombinant MAGL was studied using commercial inhibitor screening kit (Cayman Chemical). […] The absorbance of the yellow product can be analyzed using the plate reader. […]

[2] = biological target: human recombinant FAAH (Homo sapiens (Human), UniProt O00519); experiment: In vitro inhibition of human recombinant FAAH activity (Cayman FAAH inhibitor screening kit, AMC arachidonoyl amide hydrolysis); assay type: biochemical
Excerpt: In brief, FAAH hydrolyzes AMC arachidonoyl amide resulting in the release of the fluorescent product, while the inhibitor will inhibit the FAAH activity and thus reduce the fluorescent signal.

Sequence of human recombinant FAAH (O00519 whole entry): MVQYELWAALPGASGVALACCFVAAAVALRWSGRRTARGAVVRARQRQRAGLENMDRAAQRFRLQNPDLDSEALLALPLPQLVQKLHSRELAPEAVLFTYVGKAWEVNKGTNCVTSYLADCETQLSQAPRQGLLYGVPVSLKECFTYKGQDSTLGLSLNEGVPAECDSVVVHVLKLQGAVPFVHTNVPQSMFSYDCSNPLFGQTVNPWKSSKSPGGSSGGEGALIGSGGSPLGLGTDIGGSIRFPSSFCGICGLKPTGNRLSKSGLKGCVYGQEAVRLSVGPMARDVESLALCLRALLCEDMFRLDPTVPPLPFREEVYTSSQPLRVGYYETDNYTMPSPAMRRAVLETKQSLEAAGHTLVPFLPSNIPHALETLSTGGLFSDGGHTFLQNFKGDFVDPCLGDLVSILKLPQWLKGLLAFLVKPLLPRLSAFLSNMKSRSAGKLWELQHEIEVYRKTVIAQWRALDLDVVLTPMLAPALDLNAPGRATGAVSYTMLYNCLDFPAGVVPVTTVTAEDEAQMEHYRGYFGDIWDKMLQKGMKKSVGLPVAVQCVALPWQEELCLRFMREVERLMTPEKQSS
Sequence of human recombinant MAGL (Q99685 whole entry): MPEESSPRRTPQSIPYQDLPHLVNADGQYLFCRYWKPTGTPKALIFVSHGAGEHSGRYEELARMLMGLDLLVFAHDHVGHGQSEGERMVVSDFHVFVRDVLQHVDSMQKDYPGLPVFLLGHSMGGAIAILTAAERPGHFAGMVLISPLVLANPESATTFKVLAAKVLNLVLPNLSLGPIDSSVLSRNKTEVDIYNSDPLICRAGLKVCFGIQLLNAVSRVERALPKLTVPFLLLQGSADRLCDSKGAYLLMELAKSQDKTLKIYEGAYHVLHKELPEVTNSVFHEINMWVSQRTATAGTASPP

| IC50 [1] | IC50 [2] | Structure (SMILES) |
| --- | --- | --- |
| 1 to 10 nM | 1000 to 10000 nM | COc1ccc(C(c2ccc(OC)cc2)N2CCN(C(=O)n3cnc(C#N)n3)CC2)cc1 [Example 90, 1-(4-(bis(4-methoxyphenyl)methyl)piperazine-1-carbonyl)-1H-1,2,4-triazole-3-carbonitrile] |
| 1 to 10 nM | ~10000 nM | N#Cc1ncn(C(=O)N2CCN(C(c3ccc4c(c3)OCCO4)c3ccc4c(c3)OCCO4)CC2)n1 [Example 92, 1-(4-(bis(2,3-dihydrobenzo[b][1,4]dioxin-6-yl)methyl)piperazine-1-carbonyl)-1H-1,2,4-triazole-3-carbonitrile] |
| 1 to 10 nM | 1000 to 10000 nM | COc1cccc(C(c2cccc(OC)c2)N2CCN(C(=O)n3cnc(C#N)n3)CC2)c1 [Example 97, 1-(4-(bis(3-methoxyphenyl)methyl)piperazine-1-carbonyl)-1H-1,2,4-triazole-3-carbonitrile] |
| 1 to 10 nM | 1000 to 10000 nM | N#Cc1ccc(C(c2ccc(C#N)cc2)N2CCN(C(=O)n3cnc(C#N)n3)CC2)cc1 [Example 102, 4,4′-((4-(3-cyano-1H-1,2,4-triazole-1-carbonyl)piperazin-1-yl)methylene)dibenzonitrile] |
| 1 to 10 nM | 1000 to 10000 nM | COc1ccc(C(c2cccnc2)N2CCN(C(=O)n3cnc(C#N)n3)CC2)cc1 (centres unmarked) [Example 104, 1-(4-((4-methoxyphenyl)(pyridin-3-yl)methyl)piperazine-1-carbonyl)-1H-1,2,4-triazole-3-carbonitrile] |
| 1 to 10 nM | 1000 to 10000 nM | N#Cc1ncn(C(=O)N2CCN(C(c3ccc4c(c3)CCO4)c3ccc4c(c3)CCO4)CC2)n1 [Example 107, 1-(4-(bis(2,3-dihydrobenzofuran-5-yl)methyl)piperazine-1-carbonyl)-1H-1,2,4-triazole-3-carbonitrile] |
| 1 to 10 nM | ~10000 nM | Cn1ncc2cc(C(c3ccc4c(cnn4C)c3)N3CCN(C(=O)n4cnc(C#N)n4)CC3)ccc21 [Example 111, 1-(4-(bis(1-methyl-1H-indazol-5-yl)methyl)piperazine-1-carbonyl)-1H-1,2,4-triazole-3-carbonitrile] |
| 10 to 100 nM | ~50000 nM | Cn1ncc2cc(C(c3ccc4c(cnn4C)c3)N3CCN(C(=O)n4nnc5ccccc54)CC3)ccc21 [Example 112, (1H-benzo[d][1,2,3]triazol-1-yl)(4-(bis(1-methyl-1H-indazol-5-yl)methyl)piperazin-1-yl)methanone] |
| 1 to 10 nM | ~10000 nM | COc1ccc(C(c2ccc(OC)nc2)N2CCN(C(=O)n3cnc(C#N)n3)CC2)cn1 [Example 114, 1-(4-(bis(6-methoxypyridin-3-yl)methyl)piperazine-1-carbonyl)-1H-1,2,4-triazole-3-carbonitrile] |
| 1 to 10 nM | 10000 to 50000 nM | N#Cc1ncn(C(=O)N2CCN(C(c3ccc(-n4cccn4)cc3)c3ccc(-n4cccn4)cc3)CC2)n1 [Example 116, 1-(4-(bis(4-(1H-pyrazol-1-yl)phenyl)methyl)piperazine-1-carbonyl)-1H-1,2,4-triazole-3-carbonitrile] |
| 1 to 10 nM | 100 to 1000 nM | N#Cc1ncn(C(=O)N2CCN(C(c3ccc4occc4c3)c3ccc4occc4c3)CC2)n1 [Example 117, 1-(4-(di(benzofuran-5-yl)methyl)piperazine-1-carbonyl)-1H-1,2,4-triazole-3-carbonitrile] |
| 1 to 10 nM | ~10000 nM | COc1ccc(C(c2ccc3c(c2)COCO3)N2CCN(C(=O)n3cnc(C#N)n3)CC2)cn1 (centres unmarked) [Example 118, 1-(4-((4H-benzo[d][1,3]dioxin-6-yl)(6-methoxypyridin-3-yl)methyl)piperazine-1-carbonyl)-1H-1,2,4-triazole-3-carbonitrile] |
| 1 to 10 nM | > 50000 nM | N#Cc1ncn(C(=O)N2CCN(C(c3ccc(-n4cccn4)cc3)c3ccc4c(c3)COCO4)CC2)n1 (centres unmarked) [Example 120, 1-(4-((4-(1H-pyrazol-1-yl)phenyl)(4H-benzo[d][1,3]dioxin-6-yl)methyl)piperazine-1-carbonyl)-1H-1,2,4-triazole-3-carbonitrile] |
| 10 to 100 nM | ~50000 nM | Cn1ncc2cc(C(=C3CCN(C(=O)n4nnc5ccccc54)CC3)c3ccc4c(cnn4C)c3)ccc21 [Example 122, (1H-benzo[d][1,2,3]triazol-1-yl)(4-(bis(1-methyl-1H-indazol-5-yl)methylene)piperidin-1-yl)methanone] |
| 1 to 10 nM | ~10000 nM | Cn1ncc2cc(C(=C3CCN(C(=O)n4cnc(C#N)n4)CC3)c3ccc4c(cnn4C)c3)ccc21 [Example 123, 1-(4-(bis(1-methyl-1H-indazol-5-yl)methylene)piperidine-1-carbonyl)-1H-1,2,4-triazole-3-carbonitrile] |
| 1 to 10 nM | 1000 to 10000 nM | N#Cc1ncn(C(=O)N2CCC(=C(c3ccc4c(c3)COCO4)c3ccc4c(c3)COCO4)CC2)n1 [Example 124, 1-(4-(bis(4H-benzo[d][1,3]dioxin-6-yl)methylene)piperidine-1-carbonyl)-1H-1,2,4-triazole-3-carbonitrile] |
| 1 to 10 nM | 1000 to 10000 nM | N#Cc1ncn(C(=O)N2CC3CC(=C(c4ccc5c(c4)COCO5)c4ccc5c(c4)COCO5)CC3C2)n1 (stereo not drawn) [Example 125, meso-1-(5-(bis(4H-benzo[d][1,3]dioxin-6-yl)methylene)octahydrocyclopenta[c]pyrrole-2-carbonyl)-1H-1,2,4-triazole-3-carbonitrile] |
| 1 to 10 nM | 1000 to 10000 nM | N#Cc1ncn(C(=O)N2CC3(CC(=C(c4ccc5c(c4)COCO5)c4ccc5c(c4)COCO5)C3)C2)n1 [Example 126, 1-(6-(bis(4H-benzo[d][1,3]dioxin-6-yl)methylene)-2-azaspiro[3.3]heptane-2-carbonyl)-1H-1,2,4-triazole-3-carbonitrile] |

Further lines, the molecule ahead of its results:

| Structure (SMILES) | IC50 [1] | IC50 [2] |
| --- | --- | --- |
| COc1ccc(C(c2ccc(OC)cc2)N2CCN(C(=O)n3nnc4ccc(C#N)cc43)CC2)cc1 [Example 88, 1-(4-(bis(4-methoxyphenyl)methyl)piperazine-1-carbonyl)-1H-benzo[d][1,2,3]triazole-6-carbonitrile] | 1 to 10 nM | ~50000 nM |
| COc1ccc(C(c2ccc(OC)cc2)N2CCN(C(=O)n3nnc4cc(C#N)ccc43)CC2)cc1 [Example 89, 1-(4-(bis(4-methoxyphenyl)methyl)piperazine-1-carbonyl)-1H-benzo[d][1,2,3]triazole-5-carbonitrile] | 10 to 100 nM | 1000 to 10000 nM |
| COc1ccc(C(c2ccc(OC)c(OC)c2)N2CCN(C(=O)n3nnc4ccc(C#N)cc43)CC2)cc1OC [Example 93, 1-(4-(bis(3,4-dimethoxyphenyl)methyl)piperazine-1-carbonyl)-1H-benzo[d][1,2,3]triazole-6-carbonitrile] | 10 to 100 nM | > 50000 nM |
| COc1ccc(C(c2ccc(OC)c(OC)c2)N2CCN(C(=O)n3nnc4cc(C#N)ccc43)CC2)cc1OC [Example 94, 1-(4-(bis(3,4-dimethoxyphenyl)methyl)piperazine-1-carbonyl)-1H-benzo[d][1,2,3]triazole-5-carbonitrile] | 10 to 100 nM | > 50000 nM |
| COc1cccc(C(c2cccc(OC)c2)N2CCN(C(=O)n3nnc4ccc(C#N)cc43)CC2)c1 [Example 95, 1-(4-(bis(3-methoxyphenyl)methyl)piperazine-1-carbonyl)-1H-benzo[d][1,2,3]triazole-6-carbonitrile] | 1 to 10 nM | 10000 to 50000 nM |
| COc1cccc(C(c2cccc(OC)c2)N2CCN(C(=O)n3nnc4cc(C#N)ccc43)CC2)c1 [Example 96, 1-(4-(bis(3-methoxyphenyl)methyl)piperazine-1-carbonyl)-1H-benzo[d][1,2,3]triazole-5-carbonitrile] | 1 to 10 nM | 1000 to 10000 nM |
| N#Cc1ccc2nnn(C(=O)N3CCN(C(c4ccc5c(c4)OC(F)(F)O5)c4ccc5c(c4)OC(F)(F)O5)CC3)c2c1 [Example 98, 1-(4-(bis(2,2-difluorobenzo[d][1,3]dioxol-5-yl)methyl)piperazine-1-carbonyl)-1H-benzo[d][1,2,3]triazole-6-carbonitrile] | 1 to 10 nM | > 50000 nM |
| N#Cc1ccc2c(c1)nnn2C(=O)N1CCN(C(c2ccc3c(c2)OC(F)(F)O3)c2ccc3c(c2)OC(F)(F)O3)CC1 [Example 99, 1-(4-(bis(2,2-difluorobenzo[d][1,3]dioxol-5-yl)methyl)piperazine-1-carbonyl)-1H-benzo[d][1,2,3]triazole-5-carbonitrile] | 1 to 10 nM | > 50000 nM |
| N#Cc1ccc(C(c2ccc(C#N)cc2)N2CCN(C(=O)n3nnc4ccc(C#N)cc43)CC2)cc1 [Example 100, 4,4′-((4-(6-cyano-1H-benzo[d][1,2,3]triazole-1-carbonyl)piperazin-1-yl)methylene)dibenzonitrile] | 1 to 10 nM | > 50000 nM |
| N#Cc1ccc(C(c2ccc(C#N)cc2)N2CCN(C(=O)n3nnc4cc(C#N)ccc43)CC2)cc1 [Example 101, 4,4′-((4-(5-cyano-1H-benzo[d][1,2,3]triazole-1-carbonyl)piperazin-1-yl)methylene)dibenzonitrile] | 1 to 10 nM | > 50000 nM |
| O=C(N1CCN(C(c2ccc3c(c2)CCO3)c2ccc3c(c2)CCO3)CC1)n1nnc2ccccc21 [Example 108, (1H-benzo[d][1,2,3]triazol-1-yl)(4-(bis(2,3-dihydrobenzofuran-5-yl)methyl)piperazin-1-yl)methanone] | 1 to 10 nM | ~10000 nM |
| O=C(N1CCN(C(c2ccc3ncccc3c2)c2ccc3ncccc3c2)CC1)n1nnc2ccccc21 [Example 109, (1H-benzo[d][1,2,3]triazol-1-yl)(4-(di(quinolin-6-yl)methyl)piperazin-1-yl)methanone] | 10 to 100 nM | ~50000 nM |
| N#Cc1ccc2c(c1)nnn2C(=O)N1CCN(C(c2ccc(F)cc2)c2ccc(F)cc2)CC1 [Example 121, 1-(4-(bis(4-fluorophenyl)methyl)piperazine-1-carbonyl)-1H-benzo[d][1,2,3]triazole-5-carbonitrile] | 1 to 10 nM | ~100 nM |
